In publication PMC8568133, “Evaluation of bisphenylthiazoles as a promising class for combating multidrug-resistant fungal infections” (PLoS ONE, 2021):
Values after ≈ are worked out from the molar mass of the structure shown. Like-named read-outs stand apart in the source and are kept apart here.

Columns and labels:
Type in all cases: cell-based
[1] = system: Candida albicans; assay: Antifungal broth microdilution MIC (50% growth inhibition) and MFC; conditions: Candida albicans; for MIC: read-out: MIC
Protocol: (§1) Serial dilutions (from 128 μg/mL to 0.06 μg/mL) of the tested compounds and control drugs (fluconazole, itraconazole and amphotericin) (in triplicates), were screened against clinical isolates of Candida albicans, Candida auris, Candida glabrata, Candida parapsilosis, Candida tropicalis, Candida krusei, Cryptococcus neoformans, Cryptococcus gattii and Aspergillus fumigatus species using the broth microdilution method according to the Clinical and Laboratory Standards Institute guidelines. MICs were determined as the lowest concentration of the compounds that inhibited the fungal growth by 50% after incubation at 35 °C for 24 h (for Candida and Aspergillus), or 48 h (for Cryptococcus). The minimum fungicidal concentration (MFC) of these compounds was tested by plating 4 μL from wells with no growth onto YPD agar plates. The plates were incubated at 37 °C for 24 hours before recording the MFC, which was categorized as the lowest concentration that reduced fungal growth by 99.9% [45]. The experiment was repeated three independent times.

[2] = system: Candida auris; assay: as above; conditions: for MIC: read-out: MIC
Protocol: as §1

[3] = system: Candida krusei; assay: as above; conditions: Pichia kudriavzevii; for MIC: read-out: MIC
Protocol: as §1

[4] = system: Candida tropicalis; assay: as above; conditions: Candida tropicalis, ATCC1369, C. tropicalis ATCC 1369
Protocol: as §1

[5] = system: Lactobacillus casei ATCC-334; assay: Broth microdilution MIC against normal human microbiota; conditions: Lacticaseibacillus casei, ATCC334; Lactobacillus casei ATCC-334; read-out: MIC
Protocol: (§2) Broth microdilution was utilized to determine the activity of bisphenylthiazoles against the human gut microflora as described elsewhere. A bacterial solution equivalent to 0.5 McFarland standards was prepared and diluted in MRS broth to achieve a bacterial concentration of approximately 5 x 10^5 CFU/mL. Then, compounds/control antifungals (in triplicates), were added to the plates and serially diluted with media containing bacteria. The plates were incubated for 48 hours at 37 °C before recording the MIC values. The experiment was repeated three independent times.

[6] = system: Lactobacillus crispatus HM-370; assay: as above; conditions: HM370; Lactobacillus crispatus HM-370; read-out: MIC
Protocol: as §2

[7] = system: Lactobacillus gasseri HM-400; assay: as above; conditions: HM400; Lactobacillus gasseri HM-400; read-out: MIC
Protocol: as §2

[8] = system: Cryptococcus gattii; assay: Antifungal broth microdilution MIC (50% growth inhibition, 48 h); conditions: Cryptococcus gattii, read-out: MIC
Protocol: as §1

[9] = system: Cryptococcus neoformans; assay: as above; conditions: Cryptococcus neoformans, read-out: MIC
Protocol: as §1

[10] = system: Candida parapsilosis; assay: Antifungal broth microdilution MIC (50% growth inhibition); conditions: Lodderomyces parapsilosis, read-out: MIC
Protocol: as §1

[11] = system: Candida strains; assay: Minimum fungicidal concentration, summary over Candida strains; conditions: strains of Table 6
Protocol: as §1

[12] = system: Candida auris; assay: Checkerboard assay of compound 17 with standard antifungals; conditions: for Interpretation of interaction: antifungal combined with compound 17; for MIC Combined, Antifungal: antifungal in combination with compound 17; for MIC: Candidozyma auris, checkerboard, agent alone
Protocol: To evaluate the interactions between bisphenylthiazoles and the standard antifungal agents (fluconazole, amphotericin B, 5-fluorocytosine and caspofungin) against 2 C. auris clinical isolates, a standard checkerboard assay was utilized as described in previous studies. The fractional inhibitory concentration index (FICI) was calculated for each interaction. Interactions where the FICI was ≤0.5 were categorized as synergistic (SYN). FICI values of >0.5–1.25 were categorized as additive (ADD). FICI values of >1.25–4 were categorized as indifferent, and FICI values of > 4 were categorized as antagonistic. The experiment was repeated three independent times.

[13] = ATCC10231, C. albicans ATCC 10231
[14] = Candida auris 381 (azole-sensitive)
[15] = Candida auris 385 (azole-resistant)

C[C@@H]1[C@H](O)[C@@H](C)/C=C/C=C/C=C/C=C/C=C/C=C/C=C/[C@H](O[C@@H]2O[C@H](C)[C@@H](O)[C@H](N)[C@@H]2O)C[C@@H]2O[C@](O)(C[C@@H](O)C[C@@H](O)[C@H](O)CC[C@@H](O)C[C@@H](O)CC(=O)O[C@H]1C)C[C@H](O)[C@H]2C(=O)O [Amphotericin B, reference compound]
MFC [1, 13]: 1 mg/L (≈ 1.08 µM) | MIC [1, 13]: 1 mg/L (≈ 1.08 µM) | MIC ([1]; C. albicans NR-29448 (fluconazole-resistant)): 1 mg/L (≈ 1.08 µM) | MIC ([1]; C. albicans SS5314 (wild-type)): 1 mg/L (≈ 1.08 µM) | MFC ([1]; C. albicans NR-29448): 2 mg/L (≈ 2.16 µM) | MFC ([2]; Candida auris 390): 2 mg/L (≈ 2.16 µM) | MIC ([2]; Candidozyma auris, C. auris 381): 1 mg/L (≈ 1.08 µM) | MIC ([2]; Candidozyma auris, C. auris 382): 1 mg/L (≈ 1.08 µM) | MIC ([2]; Candidozyma auris, C. auris 383): 1 mg/L (≈ 1.08 µM) | MIC ([2]; Candidozyma auris, C. auris 384): 1 mg/L (≈ 1.08 µM) | MIC ([2]; Candidozyma auris, C. auris 385): 1 mg/L (≈ 1.08 µM) | MIC ([2]; Candidozyma auris, C. auris 386): 2 mg/L (≈ 2.16 µM) | MIC ([2]; Candidozyma auris, C. auris 387): 1 mg/L (≈ 1.08 µM) | MIC ([2]; Candidozyma auris, C. auris 388): 2 mg/L (≈ 2.16 µM) | MIC ([2]; Candidozyma auris, C. auris 389): 2 mg/L (≈ 2.16 µM) | MIC ([2]; Candidozyma auris, C. auris 390): 2 mg/L (≈ 2.16 µM) | MFC ([2]; Candidozyma auris, Candida auris 389, read-out: MFC): 2 mg/L (≈ 2.16 µM) | MIC ([3]; ATCC34135, C. krusei ATCC 34135): 2 mg/L (≈ 2.16 µM) | MFC ([3]; C. krusei CAB 396420): 2 mg/L (≈ 2.16 µM) | MIC ([3]; C. krusei CAB 396420): 2 mg/L (≈ 2.16 µM) | MFC [4]: 2 mg/L (≈ 2.16 µM) | MIC ([4]; read-out: MIC): 1 mg/L (≈ 1.08 µM) | MIC [5]: > 128 mg/L | MIC [6]: > 128 mg/L | MIC [7]: > 128 mg/L | MIC ([8]; C. gattii NR 43209): 1 mg/L (≈ 1.08 µM) | MIC ([8]; C. gattii NR 43210): 0.5 mg/L (≈ 0.541 µM) | MIC ([9]; C. neoformans NR 41298): 1 mg/L (≈ 1.08 µM) | MIC ([9]; C. neoformans NR 41300): 1 mg/L (≈ 1.08 µM) | MIC ([9]; C. neoformans NR 48770): 0.5 mg/L (≈ 0.541 µM) | MIC ([10]; ATCC22019, C. parapsilosis ATCC 22019): 0.5 mg/L (≈ 0.541 µM) | MIC ([10]; C. parapsilosis CAB 502638): 0.5 mg/L (≈ 0.541 µM) | fungistatic or fungicidal activity [11]: fungicidal | Interpretation of interaction [12, 14]: ADD (FICI values of >0.5–1.25 were categorized as additive (ADD)) | MIC Combined, Antifungal [12, 14]: 1 mg/L | Interpretation of interaction [12, 15]: ADD (FICI values of >0.5–1.25 were categorized as additive (ADD)) | MIC Combined, Antifungal [12, 15]: 1 mg/L | MIC [12, 14]: 1 mg/L | MIC [12, 15]: 1 mg/L
